Experimental data from paper PMC12362587, “Untargeted Diversity-Oriented Synthesis for the Discovery of New Antitumor Agents: An Integrated Approach of Inverse Virtual Screening, Bioinformatics, and Omics for Target Deconvolution” (Journal of Medicinal Chemistry, 2025).
One block for each compound: values may come before it.

Legend:
A375 cells = assay: Annexin V-FITC staining (apoptosis, flow cytometry); format: cell-based, human; details: 72 h
Procedure: Given the cytotoxic role of the compounds, an annexin V-FITC staining was performed to evaluate their effects on cell apoptosis.
Apoptosis of the cells was assessed using the Annexin V-FITC/PI reagents. A375 cells (3 × 10^4 cells/well) were seeded into 24-well plates and incubated for 72 h with compounds (5, 2.5, and 1.25 μM). After treatment, the collected cells were resuspended in a 100 μL assay buffer, then 5 μL Annexin V-FITC and 1 μL PI reagents were added following an incubation for 20 min at room temperature according to the manufacturer’s protocol (Dead Cell Apoptosis Kits with Annexin V for Flow Cytometry, Thermo Fisher Scientific). Cells were analyzed with a Becton Dickinson FACScan flow cytometer using the Cell Quest software, version 4 (Franklin Lakes, NJ, USA).

human CB2R = human CB2R (Homo sapiens, UniProt P34972); assay: cAMP Hunter assay, functional activity at CB2R; format: cell-based; set-up: host or cells: CHO-K1; details: CHO cells expressing human CB2R, alone and with JWH133
Chain of human CB2R (P34972 whole entry): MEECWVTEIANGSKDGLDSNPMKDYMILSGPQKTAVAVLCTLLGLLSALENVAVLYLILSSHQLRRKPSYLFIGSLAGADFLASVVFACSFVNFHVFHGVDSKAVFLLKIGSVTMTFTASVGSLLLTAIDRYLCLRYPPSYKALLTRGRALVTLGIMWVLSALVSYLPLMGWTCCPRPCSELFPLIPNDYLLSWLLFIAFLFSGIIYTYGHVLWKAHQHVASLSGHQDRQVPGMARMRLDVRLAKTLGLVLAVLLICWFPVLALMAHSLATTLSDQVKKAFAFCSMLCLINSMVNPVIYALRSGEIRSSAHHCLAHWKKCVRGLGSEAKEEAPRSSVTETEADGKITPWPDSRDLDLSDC
Procedure: The curves show the effect of increasing concentrations of the compound on NKH-477-induced cAMP levels in stable CHO cells expressing the human CB2R. The effect of JWH-133 is reported as a reference compound. Data are reported as means ± standard error of three independent experiments conducted in triplicate and normalized considering the NKH-477 stimulus alone as 100% of the response as indicated in the experimental session. EC50 was determined by GraphPad Prism 9 as the concentration that provokes the response halfway between the baseline (bottom) and maximum response (top) of the fitted dose–response.
The functional activity at CB2Rs was evaluated using the cAMP Hunter assay with an enzyme fragment complementation chemiluminescent detection kit, as previously reported. Following the manufacturer’s instructions, this assay measured Gi-coupled cAMP modulation in CB2R-expressing cell lines (DiscoveRx, Fremont, CA). Briefly, CHO-K1 cells overexpressing the human CB2Rs were plated in a 96-well plate at a density of 10,000 cells per well and incubated overnight at 37 °C in 5% CO2. […] Following stimulation, the cells were lysed, and cAMP levels were detected according to the manufacturer’s protocol. Luminescence was measured using the GloMax Multi-Detection System (Promega, Italy). Results were expressed as mean ± SEM and derived from three independent experiments conducted in triplicate. […]

SMILES: CC(C)C[C@H]1C(=O)N(Cc2ccc(C(F)(F)F)cc2)c2ccccc2C(=O)N1Cc1ccc(C(F)(F)F)cc1 [Compound 31, (S)-3-Isobutyl-1,4-bis(4-(trifluoromethyl)benzyl)-3,4-dihydro-1H-benzo[e][1,4]diazepine-2,5-dione]
- percentage of apoptotic cells (A375 cells; 1.25 μM): 20.40 ± 4.56%
- percentage of apoptotic cells (A375 cells; 2.5 μM): 81.10 ± 3.89%
- percentage of apoptotic cells (A375 cells; 5 μM): 88.68 ± 2.10%

- functional activity at CB2R (NKH-477-induced cAMP levels) (human CB2R): functional inverse agonist activity
SMILES: CC(C)C[C@@H](C(=O)OCc1ccccc1)N1Cc2ccccc2NC1=O [Compound 63, Benzyl (S)-4-Methyl-2-(2-oxo-1,4-dihydroquinazolin-3(2H)-yl)pentanoate]
- percentage of apoptotic cells (A375 cells; 1.25 μM): 16.52 ± 3.24%
- percentage of apoptotic cells (A375 cells; 2.5 μM): 58.90 ± 1.89%
- percentage of apoptotic cells (A375 cells; 5 μM): 71.25 ± 0.11%
